Laboratory results reported in PubChem BioAssay AID1963965 (Molecular Pharmacology Branch, DTP, NCI, 2024).
Where “and” joins values, the source holds several entries; their conditions need not be identical. Identical values can stand only once.

System: 996289-038-R-J1-PDC spheroid viability
Assay: Anticancer human tumor 996289-038-R-J1-PDC patient-derived colon adenocarcinoma cell line growth inhibition [PI3K]
Settings: spheroids with HUVEC and MSC; for viability, T/C: stronger effect = lower value; active = viability on the fitted dose curve at most 10% of control; inactive = the rest
Text: Combinatorial screen of targeted agents with the PI3K inhibitors inavolisib, alpelisib, duvelisib, and copanlisib in multi-cell type tumor spheroids
A high-throughput screen of multi-cell type tumor spheroids was designed to identify active combinations of targeted small molecules and PI3K pathway inhibitors. Complex spheroids include a stromal component modeled by human endothelial cells (HUVEC) and fibroblasts modeled by human mesenchymal stem cells (MSCs). The concentration ranges selected for each drug and investigational agent were based upon clinically achievable concentrations if the clinical Cmax of the agent was known.
Compounds. The drugs and investigational agents: inavolisib (NSC800729), alpelisib (NSC765974), duvelisib (NSC772469), copanlisib (NSC816437), ipatasertib (NSC767898), afuresertib (NSC778305), talazoparib (NSC767125), sapanisertib (NSC764658), selumetinib (NSC741078), tovorafenib (DAY101, NSC766906), vemurafenib (NSC761431), ravoxertinib (NSC781343), sotorasib (NSC818433), MRTX1133 (NSC 836407), abemaciclib (NSC 768073), palbociclib (NSC758247), venetoclax (NSC 766270), SY5609 (NSC837396), enzalutamide (NSC755605), and darolutamide (NSC825331), were obtained from the National Cancer Institute (NCI) Developmental Therapeutics Program Chemical Repository. The FDA-approved anticancer drug set is available from the NCI Developmental Therapeutics Program. […] The stock solutions were prepared in dimethyl sulfoxide (DMSO, Sigma-Aldrich, St. Louis, MO, cat. D2650) at 800-fold the tested concentration and stored at -70 degrees C prior to their use. All drugs and investigational agents were tested over a range starting from a high concentration at or near the clinical Cmax and decreasing in half-log increments. If the clinical Cmax for an agent had not been determined, the highest concentration tested was 10 microM.
Cell Culture. All cells were maintained in an incubator at 37 degrees C and 5% CO2 with 95% humidity. The PDC lines were cultured according to standard operating procedures established by the NCI PDMR (https://pdmr.cancer.gov/sops/default.htm). All PDCs were thawed and cultured in Matrigel-coated flasks prepared with a working solution of 1X Ham's F-12 nutrient mix, without supplementation (Invitrogen, Waltham, MA, cat. 11765054), 100 U/mL penicillin-streptomycin (Invitrogen, cat. 15140122), and 2.5% Matrigel (Corning Inc., Corning, NY, cat. 354248) for the first three passages. The 354836-022-R-J1-PDC, 475296-252-R-J1-PDC, and 997726-040-R-J2-PDC lines were cultured in 6A media, which includes advanced DMEM/F-12 (Thermo Fisher Scientific, cat. 12634028), 10 mM HEPES (Thermo Fisher Scientific, cat. 15630080), 1X GlutaMAX supplement (Thermo Fisher Scientific, cat. 35050061), 0.1 mg/mL primocin (InvivoGen, San Diego, CA, cat. ant-pm-2), 10% defined fetal bovine serum, heat inactivated (HyClone Laboratories Inc., Logan, UT, cat. SH30070.03HI), 50% L-WRN conditioned media (ATCC, cat. CRL-3276), 1.25 mM N-Acetyl-L-cysteine (Sigma-Aldrich, cat. A9165), 10 mM nicotinamide (Sigma-Aldrich, cat. N0636), 1X B-27 supplement (Thermo Fisher Scientific, cat. 17504044), 1X N-2 supplement (Thermo Fisher Scientific, cat. 17502048), and 10 microM Y-27632 dihydrochloride (Tocris Bioscience, Bristol, United Kingdom, cat. 1254). The 624824-186-R-J2-PDC line was cultured in 6C/Colon 1B media, which includes all 6A media components plus 50 ng/mL human EGF recombinant protein (Thermo Fisher Scientific, cat. PHG0311). […]

[1] = curve of first compound, second compound 0.00316 µM
[2] = curve of first compound, second compound 0.01 µM
[3] = curve of first compound, second compound 0.0316 µM
[4] = curve of first compound, second compound 0.1 µM
[5] = curve of first compound, second compound 0.316 µM
[6] = curve of first compound, second compound 1 µM
[7] = second compound 0.00316 µM, first compound 0.0316 µM
[8] = second compound 0.00316 µM, first compound 0.1 µM
[9] = second compound 0.00316 µM, first compound 0.316 µM
[10] = second compound 0.00316 µM, first compound 1 µM
[11] = second compound 0.00316 µM, first compound 3.16 µM
[12] = second compound 0.00316 µM, first compound 10 µM
[13] = second compound 0.01 µM, first compound 0.0316 µM
[14] = second compound 0.01 µM, first compound 0.1 µM
[15] = second compound 0.01 µM, first compound 0.316 µM
[16] = second compound 0.01 µM, first compound 1 µM
[17] = second compound 0.01 µM, first compound 3.16 µM
[18] = second compound 0.01 µM, first compound 10 µM
[19] = second compound 0.0316 µM, first compound 0.0316 µM
[20] = second compound 0.0316 µM, first compound 0.1 µM
[21] = second compound 0.0316 µM, first compound 0.316 µM
[22] = second compound 0.0316 µM, first compound 1 µM
[23] = second compound 0.0316 µM, first compound 3.16 µM
[24] = second compound 0.0316 µM, first compound 10 µM
[25] = second compound 0.1 µM, first compound 0.0316 µM
[26] = second compound 0.1 µM, first compound 0.1 µM
[27] = second compound 0.1 µM, first compound 0.316 µM
[28] = second compound 0.1 µM, first compound 1 µM
[29] = second compound 0.1 µM, first compound 3.16 µM
[30] = second compound 0.1 µM, first compound 10 µM
[31] = second compound 0.316 µM, first compound 0.0316 µM
[32] = second compound 0.316 µM, first compound 0.1 µM
[33] = second compound 0.316 µM, first compound 0.316 µM
[34] = second compound 0.316 µM, first compound 1 µM
[35] = second compound 0.316 µM, first compound 3.16 µM
[36] = second compound 0.316 µM, first compound 10 µM
[37] = second compound 1 µM, first compound 0.0316 µM
[38] = second compound 1 µM, first compound 0.1 µM
[39] = second compound 1 µM, first compound 0.316 µM
[40] = second compound 1 µM, first compound 1 µM
[41] = second compound 1 µM, first compound 3.16 µM
[42] = second compound 1 µM, first compound 10 µM
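Note: spheroids exposed to compounds for seven days before viability read.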
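Throughout, for viability, T/C: luminescence used as a proxy for viable cell amount; percent viability relative to DMSO vehicle control as 100%.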

CC(C)NCC(C(=O)N1CCN(c2ncnc3c2C(C)CC3O)CC1)c1ccc(Cl)cc1 (configuration not stated) + CC(Nc1ccc2c(c1)OCCn1cc(N3C(=O)OCC3C(F)F)nc1-2)C(N)=O
> 10 µM: IC50 [1] | IC50 [2] | IC50 [3] | IC50 [4] | IC50 [5] | IC50 [6]
inactive: viability, T/C [7] 86% | viability, T/C [8] 95.3% | viability, T/C [9] 98.6% | viability, T/C [10] 98.1% | viability, T/C [11] 85.3% | viability, T/C [12] 66.8% | viability, T/C [13] 87.2% | viability, T/C [14] 88% | viability, T/C [15] 91.6% | viability, T/C [16] 91.8% | viability, T/C [17] 82.1% | viability, T/C [18] 54.7% | viability, T/C [19] 105% | viability, T/C [20] 91.6% | viability, T/C [21] 88.7% | viability, T/C [22] 88.4% | viability, T/C [23] 78.5% | viability, T/C [24] 53.6% | viability, T/C [25] 79.8% | viability, T/C [26] 71.1% | viability, T/C [27] 76% | viability, T/C [28] 80% | viability, T/C [29] 62% | viability, T/C [30] 67.5% | viability, T/C [31] 57.9% | viability, T/C [32] 81.2% | viability, T/C [33] 64.3% | viability, T/C [34] 65% | viability, T/C [35] 73.7% | viability, T/C [36] 46% | viability, T/C [37] 64.9% | viability, T/C [38] 57.1% | viability, T/C [39] 53.5% | viability, T/C [40] 55.3% | viability, T/C [41] 52.5% | viability, T/C [42] 53.5%

CC1(C)CCC(Nc2ncc(C(F)(F)F)c(-c3c[nH]c4c(P(C)(C)=O)c(C#N)ccc34)n2)CN1 (configuration not stated) + CC(Nc1ccc2c(c1)OCCn1cc(N3C(=O)OCC3C(F)F)nc1-2)C(N)=O
inactive: viability, T/C [7] 111% | viability, T/C [8] 90.6% | viability, T/C [9] 81% | viability, T/C [10] 87.3% | viability, T/C [11] 97.1% | viability, T/C [12] 27.4% | viability, T/C [13] 110% | viability, T/C [14] 93% | viability, T/C [15] 81.7% | viability, T/C [16] 94.1% | viability, T/C [17] 89.7% | viability, T/C [18] 31.1% | viability, T/C [19] 99.3% | viability, T/C [20] 83.6% | viability, T/C [21] 85.5% | viability, T/C [22] 81.9% | viability, T/C [23] 88.5% | viability, T/C [24] 29.7% | viability, T/C [25] 89% | viability, T/C [26] 76.3% | viability, T/C [27] 81.2% | viability, T/C [28] 82.2% | viability, T/C [29] 81% | viability, T/C [30] 22.9% | viability, T/C [31] 73.9% | viability, T/C [32] 72% | viability, T/C [33] 76.6% | viability, T/C [34] 65.8% | viability, T/C [35] 69% | viability, T/C [36] 19.9% | viability, T/C [37] 58.8% | viability, T/C [38] 73.8% | viability, T/C [39] 63.7% | viability, T/C [40] 63.3% | viability, T/C [41] 66.8% | viability, T/C [42] 19.9%
4.91 µM: IC50 [5]
5.85 µM: IC50 [4]
6.89 µM: IC50 [2]
6.75 µM: IC50 [1]
6.69 µM: IC50 [3]
4.66 µM: IC50 [6]

C#Cc1c(F)ccc2cc(O)cc(-c3ncc4c(N5CC6CCC(C5)N6)nc(OCC56CCCN5CC(F)C6)nc4c3F)c12 (configuration not stated) + COc1c(OCCCN2CCOCC2)ccc2c3n(c(=NC(=O)c4cnc(N)nc4)nc12)CCN3
0.0574 µM: IC50 [4]
0.507 µM: IC50 [2]
0.807 µM: IC50 [1]
inactive: viability, T/C [7] 91.4% | viability, T/C [8] 71.3% | viability, T/C [9] 60.9% | viability, T/C [10] 47.2% | viability, T/C [11] 39.9% | viability, T/C [12] 35.3% | viability, T/C [13] 79.8% | viability, T/C [14] 83.6% | viability, T/C [15] 55.4% | viability, T/C [16] 40.3% | viability, T/C [17] 31.1% | viability, T/C [18] 26.9% | viability, T/C [19] 68.7% | viability, T/C [20] 61.3% | viability, T/C [21] 45% | viability, T/C [22] 33.2% | viability, T/C [23] 25.8% | viability, T/C [24] 19% | viability, T/C [25] 55.1% | viability, T/C [26] 46% | viability, T/C [27] 29.6% | viability, T/C [28] 23.1% | viability, T/C [29] 16.4% | viability, T/C [30] 14.8% | viability, T/C [31] 35.3% | viability, T/C [32] 27.9% | viability, T/C [33] 19.7% | viability, T/C [34] 14% | viability, T/C [35] 10.6% | viability, T/C [37] 15.9% | viability, T/C [38] 16.8% | viability, T/C [39] 11.1%
0.231 µM: IC50 [3]
active: viability, T/C [36] 7.75% | viability, T/C [40] 7.03% | viability, T/C [41] 5.65% | viability, T/C [42] 4.52%
< 0.0316 µM: IC50 [5] | IC50 [6]

CC1(C)CCC(CN2CCN(c3ccc(C(=O)NS(=O)(=O)c4ccc(NCC5CCOCC5)c([N+](=O)[O-])c4)c(Oc4cnc5[nH]ccc5c4)c3)CC2)=C(c2ccc(Cl)cc2)C1
> 10 µM and 8.8 µM and 8.7 µM: IC50 (curve of compound)
inactive: viability, T/C (compound 0.1 µM) 103% [middle of 4 runs] | viability, T/C (compound 0.316 µM) 101% [middle of 4 runs] | viability, T/C (compound 1 µM) 111% [middle of 4 runs] | viability, T/C (compound 3.16 µM) 112% [middle of 4 runs] | viability, T/C (compound 10 µM) 59.5% [middle of 4 runs]
